In PMC7284870, “Antimicrobial Peptides from Rat-Tailed Maggots of the Drone Fly Eristalis tenax Show Potent Activity against Multidrug-Resistant Gram-Negative Bacteria” (Microorganisms, 2020):
Where two headings read alike, the source gives them in different places. No end group written: not given here.

Legend:
reference strains = assay: MIC, several reference strains; assay type: cell-based; conditions: reference strains of Table 2
Protocol: (§1) The strains that were used in this study (Table 2 and Table S1) were cultivated at 37 °C in cation-adjusted Mueller–Hinton broth (CAMB) in Erlenmeyer flasks, or on the same medium with agar in Petri dishes. Exceptionally, Mycobacterium smegmatis was cultivated at 37 °C in brain heart infusion (BHI) medium that was supplemented with 1% Tween-80 in Erlenmeyer flasks, or on the same medium lacking detergent but with agar in Petri dishes. Strains listed with Robert Koch Institute (RKI) strain numbers are clinical isolates from the RKI strain collection originating from hospitalized patients in Germany. The remaining strains originated from the Sanofi strain collection and they were originally purchased from the American Type Culture Collection or the German Collection of Microorganisms and Cell Cultures. Meropenem/colistin-resistant strains were maintained, as described above, with the appropriate antibiotic added at levels below the minimal inhibitory concentration (MIC).
(§2) The MIC values were determined in 384-well microtiter plates with an assay volume of 20 µL. […] The growth of M. smegmatis was measured using the BacTiter-Glo luminescence test system (Promega, Madison, WI, USA). The growth of the other species was determined by visual inspection of the microtiter plate and turbidimetry based on the optical density at 600 nm (OD600). […]

S. aureus ATCC 33592 = assay type: cell-based, Staphylococcus aureus; conditions: CAMB, 18 h, 37 °C, n = 4
Protocol: as §1
(§3) The MIC values were determined in 384-well microtiter plates with an assay volume of 20 µL. Immediately before each assay, the cultures of test organisms (bacteria grown for 18 h, Candida albicans and M. smegmatis grown for 48 h) were diluted with the appropriate medium to a density of 1 × 10^6 cells/mL (C. albicans), 1 × 10^5 cells/mL (M. smegmatis) or 5 × 10^5 cells per mL (other species). […] We transferred 2-µL aliquots from this dilution series to new 384-well microtiter plates while using a CyBio-Well 384-channel automated pipettor (Analytic Jena, Jena, Germany) and added 18 µL of the diluted suspension of each test species using a Viafill reagent dispenser (Integra), thus reducing the final peptide concentration 10-fold to the range 1024–0.03125 µg/mL. […] The growth of M. smegmatis was measured using the BacTiter-Glo luminescence test system (Promega, Madison, WI, USA). The growth of the other species was determined by visual inspection of the microtiter plate and turbidimetry based on the optical density at 600 nm (OD600). The MIC was defined as the peptide concentration at which no bacterial growth was observed. We supplemented the test medium with either 150 mM NaCl or 1.25 mM CaCl2 to represent monovalent and divalent cations to simulate physiological conditions.

E. coli ATCC 25922 = system: E. coli ATCC 25922
Protocol: as §1
The MIC values were determined in 384-well microtiter plates with an assay volume of 20 µL. Immediately before each assay, the cultures of test organisms (bacteria grown for 18 h, Candida albicans and M. smegmatis grown for 48 h) were diluted with the appropriate medium to a density of 1 × 10^6 cells/mL (C. albicans), 1 × 10^5 cells/mL (M. smegmatis) or 5 × 10^5 cells per mL (other species). The peptides were dissolved in sterile water at a concentration of 10.24 mg/mL and a 1:2 dilution series was prepared in a 384-well microtiter plate to achieve the concentration range 10,240–0.3125 µg/mL in a volume of 50 µL. We transferred 2-µL aliquots from this dilution series to new 384-well microtiter plates while using a CyBio-Well 384-channel automated pipettor (Analytic Jena, Jena, Germany) and added 18 µL of the diluted suspension of each test species using a Viafill reagent dispenser (Integra), thus reducing the final peptide concentration 10-fold to the range 1024–0.03125 µg/mL. The cells were incubated at 37 °C and 85% relative humidity, shaking at 180 rpm for 48 h (M. smegmatis), 24 h (C. albicans) or 18 h (other species). The growth of M. smegmatis was measured using the BacTiter-Glo luminescence test system (Promega, Madison, WI, USA). The growth of the other species was determined by visual inspection of the microtiter plate and turbidimetry based on the optical density at 600 nm (OD600). […] We supplemented the test medium with either 150 mM NaCl or 1.25 mM CaCl2 to represent monovalent and divalent cations to simulate physiological conditions.

Canida albicans FH2173 = assay type: cell-based, Candida albicans; conditions: CAMB, 24 h, 37 °C, n = 4
Protocol: as §1, §3

[1] = system: Klebsiella pneumoniae DSM 30104; assay type: cell-based; conditions: CAMB, 18 h, 37 °C, n = 4
Protocol: as §1, §3

[2] = system: Staphylococcus aureus ATCC 25923; assay type: cell-based; conditions: CAMB, 18 h, 37 °C, n = 4
Protocol: as §1, §3

[3] = system: Acinetobacter baumannii ATCC 19606; assay type: cell-based; conditions: CAMB, 18 h, 37 °C, n = 4
Protocol: as §1, §3

[4] = system: Staphylococcus epidermidis ATCC 35984; assay type: cell-based; conditions: CAMB, 18 h, 37 °C, n = 4
Protocol: as §1, §3

[5] = system: Proteus mirabilis DSM 4479; assay type: cell-based; conditions: CAMB, 18 h, 37 °C, n = 4
Protocol: as §1, §3

[6] = system: Listeria monocytogenes DSM 20600; assay type: cell-based; conditions: CAMB, 18 h, 37 °C, n = 4
Protocol: as §1, §3

[7] = system: Enterococcus faecium DSM 17050; assay type: cell-based; conditions: CAMB, 18 h, 37 °C, n = 4
Protocol: as §1, §3

[8] = system: Pseudomonas aeruginosa ATCC 27853; assay type: cell-based; conditions: CAMB, 18 h, 37 °C, n = 4
Protocol: as §1, §3

[9] = system: Mycobacterium smegmatis ATCC 607; assay type: cell-based; conditions: BHI, 48 h, 37 °C, BacTiter-Glo, n = 4
Protocol: as §1, §3

[10] = system: Micrococus luteus DSM 20030; assay type: cell-based, Micrococcus luteus; conditions: CAMB, 18 h, 37 °C, n = 4
Protocol: as §1, §2

In the case of “AACSLGSLLNVGCNSCACAAHCLATRGKNGACNSQRRCVCNK (disulfide (positions not given here)) [EtDef1]”, the “activity against the test strains” value (reference strains) is reported as “inactive”, the MIC (S. aureus ATCC 33592) is reported as over 128 µg/mL and the MIC (E. coli ATCC 25922; CAMB + A000160918 [4 µg/mL]) is reported as over 256 µg/mL. The MIC (E. coli ATCC 25922; CAMB + A000161246 [4 µg/mL]) was over 256 µg/mL, the MIC (E. coli ATCC 25922; CAMB + A000173031A [4 µg/mL]) was over 256 µg/mL and the MIC (E. coli ATCC 25922; CAMB + A000173033A [4 µg/mL]) was over 256 µg/mL. The MIC (E. coli ATCC 25922; CAMB + A000173039A [0.25 µg/mL]) was over 256 µg/mL, the MIC (E. coli ATCC 25922; CAMB + A000173380A [4 µg/mL]) was over 256 µg/mL and the MIC (E. coli ATCC 25922; CAMB + A000498432A [4 µg/mL]) was over 256 µg/mL. It also gave an MIC (E. coli ATCC 25922; CAMB + A000499933A [0.0625 µg/mL]) of over 256 µg/mL, an MIC (E. coli ATCC 25922; CAMB + A000500059A [0.0625 µg/mL]) of over 256 µg/mL and an MIC (E. coli ATCC 25922; CAMB + A000500146A [0.0625 µg/mL]) of 128 µg/mL. The MIC (E. coli ATCC 25922; CAMB + A000501181A [4 µg/mL]) was over 256 µg/mL, the MIC (E. coli ATCC 25922; CAMB + Colistin E1 [0.016 µg/mL]) was 128 µg/mL and the MIC (E. coli ATCC 25922; CAMB + Colistin E2 [0.016 µg/mL]) was 4 µg/mL. For the same sequence, the MIC (E. coli ATCC 25922; CAMB + PMB [0.016 µg/mL]) was 1 µg/mL, the MIC (E. coli ATCC 25922; CAMB + PMBN [4 µg/mL]) was over 256 µg/mL and the MIC (E. coli ATCC 25922; CAMB, 18 h, 37 °C, n = 4) was over 128 µg/mL. The MIC (E. coli ATCC 25922; Table 6, CAMB) was over 256 µg/mL, the MIC (Canida albicans FH2173) was over 128 µg/mL and the MIC [1] was over 128 µg/mL. The MIC [2] was over 128 µg/mL, the MIC [3] was over 128 µg/mL and the MIC [4] was over 128 µg/mL. It also gave an MIC [5] of over 128 µg/mL, an MIC [6] of over 128 µg/mL and an MIC [7] of over 128 µg/mL. For the same sequence, the MIC [8] was over 128 µg/mL, the MIC [9] was over 128 µg/mL and the MIC [10] was over 128 µg/mL.
